The term Ki denotes the equilibrium dissociation constant of an inhibitor or competing ligand from its target.

The target in one test is Plasminogen (Homo sapiens, UniProt P00747). Description: Compound was evaluated for its inhibitory potency against plasmin.
Another test has as its target Tryptase (Homo sapiens, UniProt Q9BZJ3+Q15661+Q9NRR2). Description: Evaluated for its inhibitory potency against tryptase. Format: protein assay.
The next test deals with Prothrombin (Homo sapiens, UniProt P00734). Description: Compound was evaluated for its inhibitory potency against thrombin.
For the next test, the target named is Serine protease 1 (Homo sapiens, UniProt P07477). Description: Compound was evaluated for its inhibitory potency against trypsin.
Chain of Serine protease 1 (P07477 whole entry): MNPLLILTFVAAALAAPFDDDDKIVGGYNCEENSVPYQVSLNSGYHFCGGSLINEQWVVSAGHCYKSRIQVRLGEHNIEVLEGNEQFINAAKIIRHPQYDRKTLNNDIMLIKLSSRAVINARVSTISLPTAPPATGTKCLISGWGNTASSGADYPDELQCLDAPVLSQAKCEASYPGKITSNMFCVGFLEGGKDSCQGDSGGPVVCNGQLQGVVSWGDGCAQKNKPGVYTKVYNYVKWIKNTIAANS

Chain of Plasminogen (P00747 97-580 limits assumed): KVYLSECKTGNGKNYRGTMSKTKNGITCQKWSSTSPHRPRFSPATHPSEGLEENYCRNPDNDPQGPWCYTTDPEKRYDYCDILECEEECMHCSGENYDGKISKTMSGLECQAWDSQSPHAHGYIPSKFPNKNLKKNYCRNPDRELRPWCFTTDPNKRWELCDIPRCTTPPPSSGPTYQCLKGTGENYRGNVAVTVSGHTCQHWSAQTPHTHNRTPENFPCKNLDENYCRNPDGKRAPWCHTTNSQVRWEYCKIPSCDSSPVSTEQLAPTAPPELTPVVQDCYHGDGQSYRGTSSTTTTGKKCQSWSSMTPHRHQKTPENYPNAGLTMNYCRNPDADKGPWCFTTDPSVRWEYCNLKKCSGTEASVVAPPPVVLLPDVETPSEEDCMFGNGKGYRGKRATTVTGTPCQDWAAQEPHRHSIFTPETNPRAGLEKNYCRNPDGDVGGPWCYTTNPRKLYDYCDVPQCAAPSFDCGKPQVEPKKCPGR
Chain of Plasminogen (P00747 581-810 limits assumed): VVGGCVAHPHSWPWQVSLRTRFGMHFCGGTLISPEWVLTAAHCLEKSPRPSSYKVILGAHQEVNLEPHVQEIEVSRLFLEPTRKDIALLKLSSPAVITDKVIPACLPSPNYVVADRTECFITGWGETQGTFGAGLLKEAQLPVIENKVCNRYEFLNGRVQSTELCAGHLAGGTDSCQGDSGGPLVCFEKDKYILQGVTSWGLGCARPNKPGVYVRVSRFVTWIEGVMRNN

On to `N=C(N)Nc1ccc(CNC(=O)N2CCN(C(=O)O[C@H]3CCC[C@@H](OC(=O)N4CCN(C(=O)NCCc5ccncc5)CC4)CCC3)CC2)cc1`, for which the Ki on Plasminogen is more than 1000 µM; at Tryptase, 0.9 µM; at Prothrombin, more than 1000 µM; on Serine protease 1 it was 131 µM.

As to `NC[C@H]1CC[C@H](CNC(=O)N2CCN(C(=O)O[C@H]3CCC[C@@H](OC(=O)N4CCN(C(=O)NC[C@H]5CC[C@H](CN)CC5)CC4)CCC3)CC2)CC1`, the Ki at Plasminogen was more than 1000 µM; on Tryptase, 0.016 µM; on Prothrombin, more than 1000 µM; on Serine protease 1 it was more than 1000 µM.

`N=C(N)Nc1ccc(CNC(=O)N2CCN(C(=O)O[C@H]3CCC[C@@H](OC(=O)N4CCN(C(=O)CCCCCn5ccnc5)CC4)CCC3)CC2)cc1`: the Ki on Plasminogen was more than 1000 µM; at Tryptase it was 0.03 µM; at Prothrombin it was more than 1000 µM; at Serine protease 1, 171 µM.

As to `N=C(N)Nc1ccc(CNC(=O)N2CCN(C(=O)O[C@@H]3CO[C@H]4[C@@H]3OC[C@H]4OC(=O)N3CCN(C(=O)NCc4ccc(NC(=N)N)cc4)CC3)CC2)cc1`, the figures for the inhibition constant (Ki) on Plasminogen, on Prothrombin and at Serine protease 1 were 700 µM, 138 µM and 15 µM, respectively.

In the case of `N=C(N)Nc1ccc(CCC(=O)N2CCN(C(=O)O[C@H]3CCC[C@@H](OC(=O)N4CCN(C(=O)CCc5ccc(NC(=N)N)cc5)CC4)CCC3)CC2)cc1`, the Ki at Plasminogen was more than 1000 µM; at Tryptase, 0.21 µM; on Prothrombin, 537 µM; on Serine protease 1 it was more than 1000 µM.

As for `O=C(NCCC1CCNCC1)N1CCN(C(=O)O[C@H]2CCC[C@@H](OC(=O)N3CCN(C(=O)NCCC4CCNCC4)CC3)CCC2)CC1`, the inhibition constant (Ki) on Plasminogen was more than 1000 µM; on Tryptase, 0.115 µM; at Prothrombin, more than 1000 µM; on Serine protease 1, more than 1000 µM.

As for `NCCc1ccc(CCNC(=O)N2CCN(C(=O)O[C@H]3CCC[C@@H](OC(=O)N4CCN(C(=O)NCCc5ccc(CCN)cc5)CC4)CCC3)CC2)cc1`, the inhibition constant Ki on Plasminogen is 570 µM; on Tryptase it was 1 µM; at Prothrombin, more than 1000 µM; on Serine protease 1, more than 1000 µM.

In the case of `N=C(N)Nc1ccc(CNC(=O)N2CCN(C(=O)O[C@H]3CCC[C@@H](OC(=O)N4CCN(C(=O)NCCCN)CC4)CCC3)CC2)cc1`, the Ki was more than 1000 µM at Plasminogen, 0.044 µM at Tryptase, more than 1000 µM at Prothrombin and 138 µM at Serine protease 1.

On to `N=C(N)Nc1ccc(CNC(=O)N2CCN(C(=O)O[C@H]3C[C@H]4C[C@@H](OC(=O)N5CCN(C(=O)NCc6ccc(NC(=N)N)cc6)CC5)C[C@H]4C3)CC2)cc1`, for which the inhibition constant Ki was 0.028 µM at Tryptase, more than 1000 µM at Prothrombin and 4 µM on Serine protease 1.

As to `N=C(N)Nc1ccc(CNC(=O)N2CCN(C(=O)O[C@H]3CCC[C@@H](OC(=O)N4CCN(C(=O)CCCC5CCNCC5)CC4)CCC3)CC2)cc1`, the inhibition constant (Ki) was more than 1000 µM on Plasminogen, 0.004 µM on Tryptase, more than 1000 µM at Prothrombin and 262 µM at Serine protease 1.

With `N=C(N)Nc1ccc(CNC(=O)N2CCN(C(=O)OC[C@H]3CC[C@H](COC(=O)N4CCN(C(=O)NCc5ccc(NC(=N)N)cc5)CC4)CC3)CC2)cc1`, the Ki at Plasminogen is more than 1000 µM; at Tryptase, 0.003 µM; on Serine protease 1, 28 µM.

For the compound `N=C(N)Nc1ccc(CNC(=O)N2CCN(C(=O)O[C@H]3CCC[C@@H](OC(=O)N4CCN(C(=O)NC[C@H]5CC[C@H](N)CC5)CC4)CCC3)CC2)cc1`, the Ki on Plasminogen is more than 1000 µM; at Tryptase, 0.001 µM; at Prothrombin, more than 1000 µM; at Serine protease 1, 141 µM.

In the case of `N=C(N)Nc1ccc(CNC(=O)N2CCN(C(=O)O[C@H]3CCC[C@@H](OC(=O)N4CCN(C(=O)CCc5ccc(N)nc5)CC4)CCC3)CC2)cc1`, the inhibition constant (Ki) on Plasminogen is more than 1000 µM; at Tryptase, 0.18 µM; on Prothrombin, more than 1000 µM; on Serine protease 1 it was 156 µM.

For `N=C(N)Nc1ccc(CNC(=O)N2CCN(C(=O)O[C@H]3CCC[C@@H](OC(=O)N4CCN(C(=O)NCCC5CCNCC5)CC4)CCC3)CC2)cc1`, the Ki on Plasminogen was more than 1000 µM; on Tryptase, 0.003 µM; at Prothrombin it was more than 1000 µM; at Serine protease 1 it was 121 µM.

Regarding `N=C(N)Nc1ccc(CNC(=O)N2CCN(C(=O)CCCCCCC(=O)N3CCN(C(=O)NCc4ccc(NC(=N)N)cc4)CC3)CC2)cc1`, the inhibitory constant (Ki) at Plasminogen is more than 1000 µM; on Tryptase it was 0.0001 µM; on Prothrombin, more than 1000 µM; on Serine protease 1 it was 34 µM.

With `NCC12CCC(CNC(=O)N3CCN(C(=O)O[C@H]4CCC[C@@H](OC(=O)N5CCN(C(=O)NCC67CCC(CN)(CC6)CC7)CC5)CCC4)CC3)(CC1)CC2`, the Ki was more than 1000 µM on Plasminogen, 0.3 µM on Tryptase, more than 1000 µM at Prothrombin and 95 µM at Serine protease 1.

For `CN(CCC1CCNCC1)C(=O)N1CCN(C(=O)O[C@H]2CCC[C@@H](OC(=O)N3CCN(C(=O)NCc4ccc(NC(=N)N)cc4)CC3)CCC2)CC1`, the Ki at Plasminogen was more than 1000 µM; at Tryptase, 0.68 µM; on Prothrombin it was more than 1000 µM; at Serine protease 1, 126 µM.

Regarding `NCc1ccc(CNC(=O)N2CCN(C(=O)O[C@H]3CCC[C@@H](OC(=O)N4CCN(C(=O)NCc5ccc(CN)cc5)CC4)CCC3)CC2)cc1`, the Ki is more than 1000 µM at Plasminogen, 0.0001 µM on Tryptase, more than 1000 µM at Prothrombin and 219 µM on Serine protease 1.

Compound `O=C(NCc1ccccc1)N1CCN(C(=O)O[C@H]2CCC[C@@H](OC(=O)N3CCN(C(=O)NCc4ccccc4)CC3)CCC2)CC1` returned a Ki on Tryptase of 101 µM.

Consider `N=C(N)c1ccc(CCC(=O)N2CCN(C(=O)O[C@H]3CCC[C@@H](OC(=O)N4CCN(C(=O)CCc5ccc(C(=N)N)cc5)CC4)CCC3)CC2)cc1`, for which the Ki was determined as 66 µM at Plasminogen, 0.0004 µM at Tryptase, 29 µM on Prothrombin and 21 µM at Serine protease 1.

`NCCc1ccc(CC(=O)N2CCN(C(=O)O[C@H]3CCC[C@@H](OC(=O)N4CCN(C(=O)Cc5ccc(CCN)cc5)CC4)CCC3)CC2)cc1`: the inhibitory constant (Ki) at Plasminogen was more than 1000 µM; on Tryptase, 0.002 µM; on Prothrombin, more than 1000 µM; at Serine protease 1 it was more than 1000 µM.

For `N=C(N)Nc1ccc(CNC(=O)N2CCN(C(=O)OCc3ccc(COC(=O)N4CCN(C(=O)NCc5ccc(NC(=N)N)cc5)CC4)cc3)CC2)cc1`, the Ki at Plasminogen was more than 1000 µM; at Tryptase it was 0.0004 µM; on Prothrombin it was more than 1000 µM; at Serine protease 1 it was 17 µM.

Consider `N=C(N)N1CCC(CCC(=O)N2CCN(C(=O)O[C@H]3CCC[C@@H](OC(=O)N4CCN(C(=O)CCC5CCN(C(=N)N)CC5)CC4)CCC3)CC2)CC1`, for which the inhibition constant Ki at Plasminogen was more than 1000 µM; on Tryptase, 0.002 µM; at Prothrombin, 213 µM; on Serine protease 1 it was 171 µM.

For the compound `N=C(N)Nc1ccc(CNC(=O)N2CCN(C(=O)CCCCCC(=O)N3CCN(C(=O)NCc4ccc(NC(=N)N)cc4)CC3)CC2)cc1`, the inhibition constant Ki on Plasminogen is more than 1000 µM; at Tryptase, 0.004 µM; at Prothrombin, more than 1000 µM; on Serine protease 1 it was 52 µM.

In the case of `N=C(N)Nc1ccc(CNC(=O)N2CCN(C(=O)CCCCCCCCC(=O)N3CCN(C(=O)NCc4ccc(NC(=N)N)cc4)CC3)CC2)cc1`, the Ki is more than 1000 µM on Plasminogen, 0.0007 µM on Tryptase, more than 1000 µM on Prothrombin and 20 µM at Serine protease 1.

As for `N=C(N)Nc1ccc(CNC(=O)N2CCN(C(=O)O[C@H]3CCC[C@@H](OC(=O)N4CCN(C(=O)CCCn5ccnc5)CC4)CCC3)CC2)cc1`, the inhibition constant Ki on Plasminogen is more than 1000 µM; at Tryptase, more than 1000 µM; on Prothrombin it was more than 1000 µM; at Serine protease 1, 158 µM.

For the compound `N=C(N)N1CCC(CCNC(=O)N2CCN(C(=O)O[C@H]3CCC[C@@H](OC(=O)N4CCN(C(=O)NCCC5CCN(C(=N)N)CC5)CC4)CCC3)CC2)CC1`, the inhibition constant (Ki) at Plasminogen stood at 632 µM; on Tryptase it was 0.03 µM; on Prothrombin, 112 µM; at Serine protease 1, 850 µM.

Take `N=C(N)Nc1ccc(CNC(=O)N2CCN(C(=O)O[C@H]3CCC[C@@H](OC(=O)N4CCN(C(=O)NC[C@H]5CC[C@@H](N)CC5)CC4)CCC3)CC2)cc1`: the inhibitory constant (Ki) is more than 1000 µM on Plasminogen, 0.078 µM at Tryptase, 274 µM at Prothrombin and 171 µM on Serine protease 1.

Consider `NCCCCNC(=O)N1CCN(C(=O)O[C@H]2CCC[C@@H](OC(=O)N3CCN(C(=O)NCCCCN)CC3)CCC2)CC1`, for which the Ki at Plasminogen was more than 1000 µM; on Tryptase, 0.51 µM; at Prothrombin, more than 1000 µM; at Serine protease 1, more than 1000 µM.

Regarding `CN1CCC(CCNC(=O)N2CCN(C(=O)O[C@H]3CCC[C@@H](OC(=O)N4CCN(C(=O)NCc5ccc(NC(=N)N)cc5)CC4)CCC3)CC2)CC1`, the Ki was more than 1000 µM on Plasminogen, 3 µM at Tryptase, 269 µM on Prothrombin and 110 µM at Serine protease 1.

With `N=C(N)N1CCC(CNC(=O)N2CCN(C(=O)O[C@H]3CCC[C@@H](OC(=O)N4CCN(C(=O)NCC5CCN(C(=N)N)CC5)CC4)CCC3)CC2)CC1`, the Ki on Plasminogen is more than 1000 µM; on Tryptase, 0.61 µM; at Prothrombin, 146 µM; at Serine protease 1 it was more than 1000 µM.

For `N=C(N)Nc1ccc(CNC(=O)N2CCN(C(=O)O[C@H]3CCC[C@@H](OC(=O)N4CCN(C(=O)NCCCC5CCNCC5)CC4)CCC3)CC2)cc1`, the inhibitory constant (Ki) at Plasminogen was more than 1000 µM; on Tryptase, 0.24 µM; at Prothrombin, more than 1000 µM; on Serine protease 1, 80 µM.

In turn, `N=C(N)Nc1ccc(CNC(=O)N2CCN(C(=O)O[C@H]3CCC[C@@H](OC(=O)N4CCN(C(=O)NCc5ccccc5)CC4)CCC3)CC2)cc1` registered an inhibitory constant (Ki) on Tryptase of 15 µM.

For `N=C(N)Nc1ccc(CNC(=O)N2CCN(C(=O)O[C@H]3CCC[C@@H](OC(=O)N4CCN(C(=O)CCCCn5ccnc5)CC4)CCC3)CC2)cc1`, the Ki at Plasminogen is more than 1000 µM; on Tryptase it was 1 µM; on Prothrombin, more than 1000 µM; at Serine protease 1 it was 144 µM.

On to `N=C(N)Nc1ccc(CNC(=O)N2CCN(C(=O)O[C@H]3CCC[C@@H](OC(=O)N4CCN(C(=O)NCCCCN)CC4)CCC3)CC2)cc1`, for which the Ki was more than 1000 µM at Plasminogen, 0.004 µM on Tryptase, more than 1000 µM at Prothrombin and 132 µM at Serine protease 1.
